Measured values as given in ChEMBL document CHEMBL6178016, “Design, Synthesis, and Biological Evaluation of New PDE4 Inhibitors for the Treatment of Pressure Ulcers” (J Med Chem, 2025).
The source made the active and inactive calls. The rule behind the calls is not given here.

Assays:
Rattus norvegicus [1] = assay: Antiinflammatory activity against male Sprague-Dawley rat pressure ulcer model assessed as appearance of orderly arranged cells at 0.625 to 2.5% administered as ointment by H and E staining based analysis; format: functional, organism-based
Cytochrome P450 3A4 = Cytochrome P450 3A4 (Homo sapiens, UniProt P08684); assay: Inhibition of human CYP3A4; format: ADME
Sequence of Cytochrome P450 3A4 (P08684 whole entry): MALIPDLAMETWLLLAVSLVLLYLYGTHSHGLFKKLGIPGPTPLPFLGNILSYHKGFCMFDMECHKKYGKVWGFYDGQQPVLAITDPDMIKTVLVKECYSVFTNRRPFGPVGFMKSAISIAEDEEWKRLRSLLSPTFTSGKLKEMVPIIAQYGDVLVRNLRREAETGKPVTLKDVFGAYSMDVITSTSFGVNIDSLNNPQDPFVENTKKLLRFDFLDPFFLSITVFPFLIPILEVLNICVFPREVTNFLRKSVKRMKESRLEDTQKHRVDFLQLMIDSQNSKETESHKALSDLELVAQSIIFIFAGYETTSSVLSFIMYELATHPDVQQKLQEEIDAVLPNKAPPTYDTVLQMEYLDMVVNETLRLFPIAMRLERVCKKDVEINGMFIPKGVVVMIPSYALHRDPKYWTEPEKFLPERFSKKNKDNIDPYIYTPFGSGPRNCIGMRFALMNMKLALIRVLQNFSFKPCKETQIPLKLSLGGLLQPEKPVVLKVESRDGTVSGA

Cytochrome P450 2D6 = Cytochrome P450 2D6 (Homo sapiens, UniProt P10635); assay: Inhibition of human CYP2D6; format: ADME
Sequence of Cytochrome P450 2D6 (P10635 whole entry): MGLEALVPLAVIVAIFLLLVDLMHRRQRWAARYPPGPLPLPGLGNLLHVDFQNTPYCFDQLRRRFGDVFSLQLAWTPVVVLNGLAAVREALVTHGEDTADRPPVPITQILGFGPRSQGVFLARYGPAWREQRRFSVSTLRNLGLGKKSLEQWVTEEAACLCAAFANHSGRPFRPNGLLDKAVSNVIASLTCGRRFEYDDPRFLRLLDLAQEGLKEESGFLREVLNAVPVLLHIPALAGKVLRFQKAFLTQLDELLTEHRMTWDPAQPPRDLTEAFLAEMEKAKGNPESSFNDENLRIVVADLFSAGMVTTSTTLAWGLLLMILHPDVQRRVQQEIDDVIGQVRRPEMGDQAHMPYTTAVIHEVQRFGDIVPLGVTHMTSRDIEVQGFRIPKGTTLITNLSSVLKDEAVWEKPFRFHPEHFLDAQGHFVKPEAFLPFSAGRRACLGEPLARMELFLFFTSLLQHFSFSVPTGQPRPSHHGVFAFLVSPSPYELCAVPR

Rattus norvegicus [2] = assay: Antiinflammatory activity against male Sprague-Dawley rat pressure ulcer model assessed as wound healing rate at 2.5% administration as ointment measured after 7 days (reference value: 70%); format: functional; details: time 7 day
RAW264.7 [3] = assay: Antiinflammatory activity against LPS induced mouse RAW264.7 cells assessed as increase in CREB phosphorylation expression at 5 to 20 uM by Western blot analysis; format: functional, cell-based; details: dose 5-20 µM
[4] = Acute toxicity in male Kunming mouse assessed as effect on pathological changes in liver at 500 to 4000 mg/kg measured after 14 days by H and E staining based analysis; format: organism-based; details: in vivo, 336 h, dose 500-4000 mg/kg, time 14 day
[5] = Half life in Sprague-Dawley rat at 10 mg/kg, po; format: ADME, organism-based; details: in vivo
[6] = Acute toxicity in female Kunming mouse assessed as effect on pathological changes in kidney at 500 to 4000 mg/kg measured after 14 days by H and E staining based analysis; format: organism-based; details: in vivo, 336 h, dose 500-4000 mg/kg, time 14 day
[7] = Half life in Sprague-Dawley rat at 5 mg/kg, iv; format: ADME, organism-based; details: in vivo
[8] = Tmax in Sprague-Dawley rat at 10 mg/kg, po; format: ADME, organism-based; details: in vivo
[9] = Acute toxicity in female Kunming mouse assessed as effect on pathological changes in spleen at 500 to 4000 mg/kg measured after 14 days by H and E staining based analysis; format: organism-based; details: in vivo, 336 h, dose 500-4000 mg/kg, time 14 day
[10] = Cmax in Sprague-Dawley rat at 10 mg/kg, po; format: ADME, organism-based; details: in vivo
HUVEC = assay: Inhibition of cell migration in HUVEC cells; format: functional, cell-based; details: Homo sapiens, dose 5-20 µM
Enterococcus faecalis = assay: Antibacterial activity against Enterococcus faecalis BNCC296862 assessed as reduction in bacterial colonies growth at 512 ug/ml measured after 24 hrs by agar plate method; format: functional, organism-based; details: dose 512.0 µg/ml
Rattus norvegicus [11] = assay: Antiinflammatory activity against male Sprague-Dawley rat pressure ulcer model assessed as decrease in inflammatory cells in dermis at 0.625 to 2.5% administered as ointment by Masson staining based analysis; format: functional, organism-based
[12] = AUC (0 to t) in Sprague-Dawley rat at 10 mg/kg, po; format: ADME, organism-based; details: in vivo
[13] = biological target: Dual specificity calcium/calmodulin-dependent 3',5'-cyclic nucleotide phosphodiesterase 1A (Homo sapiens, UniProt P54750); assay: Inhibition of PDE1A (unknown origin)
Sequence of Dual specificity calcium/calmodulin-dependent 3',5'-cyclic nucleotide phosphodiesterase 1A (P54750 whole entry): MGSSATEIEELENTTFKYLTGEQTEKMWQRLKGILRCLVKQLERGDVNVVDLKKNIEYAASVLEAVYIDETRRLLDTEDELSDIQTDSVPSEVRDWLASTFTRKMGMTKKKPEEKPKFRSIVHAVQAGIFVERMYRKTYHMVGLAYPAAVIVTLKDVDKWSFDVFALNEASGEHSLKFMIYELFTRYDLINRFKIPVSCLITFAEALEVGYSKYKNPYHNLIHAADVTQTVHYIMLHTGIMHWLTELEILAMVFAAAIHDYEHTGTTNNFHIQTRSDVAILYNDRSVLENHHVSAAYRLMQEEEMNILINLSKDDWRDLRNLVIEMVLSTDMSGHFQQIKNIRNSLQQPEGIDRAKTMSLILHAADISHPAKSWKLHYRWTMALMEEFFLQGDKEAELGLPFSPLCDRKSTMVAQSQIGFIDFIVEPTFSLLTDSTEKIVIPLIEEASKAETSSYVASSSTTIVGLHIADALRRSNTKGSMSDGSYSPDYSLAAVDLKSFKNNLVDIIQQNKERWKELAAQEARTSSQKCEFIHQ

RAW264.7 [14] = assay: Antiinflammatory activity against mouse RAW264.7 cells assessed as inhibition of LPS-induced TNF-alpha release preincubated for 2 hrs followed by LPS stimulation and measured after 4 hrs by RT-PCR analysis; format: functional, cell-based
Mus musculus = assay: Antiallodynic activity in female C57/BL mouse assessed as increase in response latency at 60 mg/kg, ip measured after 3 to 7 days by hot plate method; format: functional, organism-based; details: time 3-7 day
[15] = biological target: High affinity cGMP-specific 3',5'-cyclic phosphodiesterase 9A (Homo sapiens, UniProt O76083); assay: Inhibition of PDE9A (unknown origin)
Sequence of High affinity cGMP-specific 3',5'-cyclic phosphodiesterase 9A (O76083 whole entry): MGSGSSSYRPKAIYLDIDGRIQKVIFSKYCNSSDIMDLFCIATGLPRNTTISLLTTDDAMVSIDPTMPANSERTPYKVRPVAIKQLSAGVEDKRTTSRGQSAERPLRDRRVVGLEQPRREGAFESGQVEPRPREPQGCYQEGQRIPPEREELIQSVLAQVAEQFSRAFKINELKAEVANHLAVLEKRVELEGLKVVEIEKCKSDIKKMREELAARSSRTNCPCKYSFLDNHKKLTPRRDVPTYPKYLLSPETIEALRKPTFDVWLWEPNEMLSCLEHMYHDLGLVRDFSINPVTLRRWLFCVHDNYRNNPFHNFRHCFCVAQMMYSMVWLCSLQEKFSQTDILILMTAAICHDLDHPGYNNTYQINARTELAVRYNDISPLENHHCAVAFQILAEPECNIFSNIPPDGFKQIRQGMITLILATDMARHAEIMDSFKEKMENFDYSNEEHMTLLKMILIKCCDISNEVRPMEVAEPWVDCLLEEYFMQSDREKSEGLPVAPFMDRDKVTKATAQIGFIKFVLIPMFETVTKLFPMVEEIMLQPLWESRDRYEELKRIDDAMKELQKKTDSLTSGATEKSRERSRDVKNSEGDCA

[16] = biological target: cGMP-dependent 3',5'-cyclic phosphodiesterase (Homo sapiens, UniProt O00408); assay: Inhibition of PDE2A (unknown origin)
Sequence of cGMP-dependent 3',5'-cyclic phosphodiesterase (O00408 whole entry): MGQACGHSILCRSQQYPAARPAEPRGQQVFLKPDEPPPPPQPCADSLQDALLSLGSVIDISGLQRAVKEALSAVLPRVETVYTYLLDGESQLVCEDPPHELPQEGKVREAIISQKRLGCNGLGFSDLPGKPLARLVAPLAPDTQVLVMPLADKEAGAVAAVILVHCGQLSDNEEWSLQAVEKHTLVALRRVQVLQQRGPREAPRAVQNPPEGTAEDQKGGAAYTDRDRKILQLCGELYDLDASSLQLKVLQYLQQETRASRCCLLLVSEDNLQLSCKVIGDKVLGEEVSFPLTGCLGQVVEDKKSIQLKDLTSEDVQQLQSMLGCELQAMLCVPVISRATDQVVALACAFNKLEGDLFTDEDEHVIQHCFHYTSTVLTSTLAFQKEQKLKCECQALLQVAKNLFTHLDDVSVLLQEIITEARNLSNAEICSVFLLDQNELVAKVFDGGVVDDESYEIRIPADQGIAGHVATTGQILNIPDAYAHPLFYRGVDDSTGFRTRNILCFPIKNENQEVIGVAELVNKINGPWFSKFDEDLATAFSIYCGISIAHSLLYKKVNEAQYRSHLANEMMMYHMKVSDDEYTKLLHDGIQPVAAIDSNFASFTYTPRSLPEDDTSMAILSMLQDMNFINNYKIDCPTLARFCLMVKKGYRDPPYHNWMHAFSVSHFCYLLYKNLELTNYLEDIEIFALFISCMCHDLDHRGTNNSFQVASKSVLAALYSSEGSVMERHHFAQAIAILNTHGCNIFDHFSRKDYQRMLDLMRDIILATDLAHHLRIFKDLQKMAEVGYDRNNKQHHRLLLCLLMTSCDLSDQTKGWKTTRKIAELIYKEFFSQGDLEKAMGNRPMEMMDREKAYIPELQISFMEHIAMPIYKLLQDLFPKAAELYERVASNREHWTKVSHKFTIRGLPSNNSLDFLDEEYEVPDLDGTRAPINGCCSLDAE

[17] = biological target: cGMP-specific 3',5'-cyclic phosphodiesterase (Homo sapiens, UniProt O76074); assay: Inhibition of PDE5A (unknown origin)
[18] = Toxicity in male Sprague-Dawley rat assessed as pathological changes in liver by H and E staining based analysis; format: tissue-based; details: in vivo
[19] = biological target: cAMP and cAMP-inhibited cGMP 3',5'-cyclic phosphodiesterase 10A (Homo sapiens, UniProt Q9Y233); assay: Inhibition of PDE10A (unknown origin)
Sequence of cAMP and cAMP-inhibited cGMP 3',5'-cyclic phosphodiesterase 10A (Q9Y233 whole entry): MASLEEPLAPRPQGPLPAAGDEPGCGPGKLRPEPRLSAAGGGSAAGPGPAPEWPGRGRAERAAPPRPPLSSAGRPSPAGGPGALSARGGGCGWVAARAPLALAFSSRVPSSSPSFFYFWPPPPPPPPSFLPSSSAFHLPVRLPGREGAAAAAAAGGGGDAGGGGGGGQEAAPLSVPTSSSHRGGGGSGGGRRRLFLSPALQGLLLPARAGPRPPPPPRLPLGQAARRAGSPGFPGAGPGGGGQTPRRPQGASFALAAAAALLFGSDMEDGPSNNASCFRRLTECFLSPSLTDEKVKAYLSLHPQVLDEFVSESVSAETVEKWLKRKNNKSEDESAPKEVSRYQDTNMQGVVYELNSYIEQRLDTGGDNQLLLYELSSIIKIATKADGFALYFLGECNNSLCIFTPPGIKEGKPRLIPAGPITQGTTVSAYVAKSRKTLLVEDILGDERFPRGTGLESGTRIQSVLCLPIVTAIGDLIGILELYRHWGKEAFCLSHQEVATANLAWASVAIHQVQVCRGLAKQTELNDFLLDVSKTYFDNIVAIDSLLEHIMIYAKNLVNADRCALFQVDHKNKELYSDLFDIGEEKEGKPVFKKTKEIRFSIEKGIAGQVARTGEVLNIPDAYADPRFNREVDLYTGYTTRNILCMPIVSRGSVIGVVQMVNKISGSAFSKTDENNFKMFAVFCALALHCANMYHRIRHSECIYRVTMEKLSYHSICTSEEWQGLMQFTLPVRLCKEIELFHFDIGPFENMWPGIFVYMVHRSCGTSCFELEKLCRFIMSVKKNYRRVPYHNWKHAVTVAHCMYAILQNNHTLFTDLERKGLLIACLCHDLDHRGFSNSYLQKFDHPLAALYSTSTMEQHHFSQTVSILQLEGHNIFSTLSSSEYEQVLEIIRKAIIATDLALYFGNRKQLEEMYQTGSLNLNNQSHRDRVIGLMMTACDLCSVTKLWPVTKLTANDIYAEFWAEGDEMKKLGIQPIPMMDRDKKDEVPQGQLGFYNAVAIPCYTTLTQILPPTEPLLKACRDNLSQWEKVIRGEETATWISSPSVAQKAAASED

[20] = Oral bioavailability in Sprague-Dawley rat at 10 mg/kg; format: ADME, organism-based; details: in vivo
Rattus norvegicus [21] = assay: Antiinflammatory activity against male Sprague-Dawley rat pressure ulcer model assessed as wound healing rate at 1.25% administration as ointment measured after 7 days (reference value: 70%); format: functional; details: time 7 day

Cn1c(=O)c2c(ncn2CCC(=O)NNC(=O)c2cc3nccc(-c4ccc(OC(F)F)c(OCC5CC5)c4)n3n2)n(C)c1=O
Activity (Rattus norvegicus [1]): Active
IC50 (Cytochrome P450 3A4): > 50 µM
IC50 (Cytochrome P450 2D6): > 50 µM
Activity (Rattus norvegicus [2]): 81%
Activity (RAW264.7 [3]): Active
Activity [4]: Non-toxic
half-life [5]: 84 min
Activity [6]: Non-toxic
half-life [7]: 16.8 min
Tmax [8]: 15 min
Activity [9]: Non-toxic
Cmax [10]: 14.4 ng/mL
inhibition (HUVEC): Dose-dependent-effect
Activity (Enterococcus faecalis): Active
Activity (Rattus norvegicus [11]): Active
AUC(0-t) [12]: 25.6 ng·h/mL
IC50 [13]: > 50 µM
IC50 (RAW264.7 [14]): 13.3 µM
Activity (Mus musculus): Active
IC50 [15]: > 50 µM
IC50 [16]: > 50 µM
IC50 [17]: > 50 µM
Activity [18]: Non-toxic
IC50 [19]: 1120 nM
bioavailability [20]: 5.5%
Activity (Rattus norvegicus [21]): 93%
